From patent US20250197388A1, “COMPOUNDS, PHARMACEUTICAL COMPOSITIONS AND METHODS FOR TREATING INFLAMMATORY BOWEL DISEASE” (FLAGSHIP PIONEERING INNOVATIONS VI, LLC, priority 2022, published 2025) come the findings set out here.

SMILES strings stand for the structures. “Also recorded” adds a separate entry of the source. A value given as a limit tells only on which side of the number the result lay.

In assay [1] the target is T1, Dectin-1b (Homo sapiens, UniProt Q9BXN2).
T1 construct: host or cells: HEK-Blue Dectin-1b reporter cells (HEK293-derived)
T1 sequence (Q9BXN2 1-201 isoform Q9BXN2-2): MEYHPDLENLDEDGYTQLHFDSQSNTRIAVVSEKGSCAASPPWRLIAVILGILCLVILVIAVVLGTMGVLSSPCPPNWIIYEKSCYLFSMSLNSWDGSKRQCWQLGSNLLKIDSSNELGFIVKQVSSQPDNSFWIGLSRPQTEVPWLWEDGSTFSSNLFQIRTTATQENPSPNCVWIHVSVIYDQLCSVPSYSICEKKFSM
The experiment in a line: Dectin-1 assay, HEK-Blue Dectin-1b SEAP reporter cells stimulated with beta-glucan peptide (BGP). The class given is cell-based. The conditions noted are these: for Activity: HEK-Blue Dectin-1b cells, compounds at 1, 10 or 30 μM for 6 hours, then BGP 30 μg/mL 16-18 hours, SEAP adjusted by cell viability. Here is the method:
Compounds described herein are added to mammalian cells for bioactivity assessment. The HEK-Blue Dectin-1b cells line (InVivoGen) releases a reporter protein (secreted embryonic alkaline phosphatase, SEAP) to the culture supernatant in response to Dectin-1 activation. HEK-Blue reporter cells were grown in DMEM culture media with 10% decomplemented fetal calf serum (InvivoGen, 1% Pen/Strep antibiotic (InvivoGen), 0.2% Normocin antibiotic (InvivoGen). On the day prior to the assay, cells were seeded in a 96 flat-bottom well plate at 50,000 cells/well and further incubated for 20 hours. On the day of the assay cells were incubated with 1 μM, 10 μM or 30 μM of the compounds described herein or with 1 μM of the SYKi IV Dectin-1b Inhibitor (Millipore) or with DMSO (vehicle control) for 6 hours, followed by the addition of beta-glucan peptide (BGP, a Dectin-1 ligand at 30 μg/mL) and incubation for 16-18 hours. After incubation was concluded, the cultures supernatants were collected and Dectin-1 related activity was assessed by measurement of the SEAP-reporter protein presence, using Quanti-Blue assay (Invivogen) and these values were adjusted by the Cell Viability levels that was assessed using the Cell-Titer-Glo2 Reagent (Promega).
Results represent cell number adjusted SEAP levels in a triplicate setting for each condition and cell numbers and viability corrections reflected less than 5% corrections. See, e.g., FIG. 1 for compound A-3.

For assay [2], the system named is R848-stimulated monocyte-derived dendritic cells. Kind of assay: MoDC assay, R848-stimulated pro-inflammatory cytokines. It is filed as cell-based, human. Particulars: for Gro-α / IL-6 / IL-12p70 / IL-23 / IP-10 / MCP-1 / Mip-1α / TNFα: healthy human donor 14; for inhibition of pro-inflammatory cytokines (overall): healthy human donor 14 (FIGS. 10A-10H). From the text: (§1) Monocyte derived DC (MoDC) were differentiated from healthy human donor derived CD14+ monocytes. Commercially available freshly prepared Leukopaks were obtained from healthy blood donor and kept refrigerated on ice before spin centrifuged and the pelleted cells are rinsed and resuspended with MACS buffer (Miltenyi Biotec). Next, CD14+ monocytes were purified using MultiMACS™ Cell24 Separator-Plus instrumentation and reagents according to the manufacturer (Miltenyi Biotec) instructions. The resulting purified CD14^+ cell fraction was washed, enumerated, and subsequently cryopreserved for later use. At the experiment first day cryopreserved CD14′ cells were thawed, rinsed with culture media, and then resuspended in culture media principally composed of RPMI (Invitrogen) supplemented with 10% v/v heat inactivated FBS. For generation of MoDC, these CD14^+ cells were enumerated and seeded into 75 cm^2 tissue culture flasks in 30 mL of culture media supplemented with GM-CSF (40-100 ng/mL) and IL-4 (25 ng/mL). Every other day, half of the culture media was replaced with fresh media (containing the same cytokine supplementation) and after 6-7 days of culture, fully differentiated and matured MoDC were obtained as confirmed by conventional Immuno-phenotype markers (levels of expression or absence of surface CD80, CD83, CD86, CD209, HLA-DR, CD14 & CD64) that were verified by flow-cytometry. Fully differentiated (mature) MoDCs, were seeded into 96 flat-well plates and incubated with a various concentration of the compound described herein, or with control solution (DMSO), or with the pharmacologic inhibitors Cyclosporin-A (CsA) and BAY 61-3606 (which is a known inhibitor of Syk kinase) for 6 hours. Next, the MoDC culture well were added with Dectin-1(CLEC7a1)-ligand (Zymosan at 5 μg/mL), or the Toll-like receptor agonist R848, and further incubated for 18-20 hours. After incubation concluded, culture supernatants were collected, and the levels of inflammatory cytokines and chemokines was measured in a triplicate setting for each condition by Luminex® multiplex assay (FIG. 2) or by ELISA (FIG. 3).

Assay [3] relates to LPS-induced IRF reporter activity. Kind of assay: IRF assay, THP-1 dual reporter cell line (Lucia luciferase) stimulated with LPS. Particulars: for inhibition of LPS-induced IRF reporter activity: THP-1 dual reporter cells, LPS 25 ng/mL, compounds at 1 μM or 10 μM. The class given is cell-based. Here is the method:
Compounds described herein are added to mammalian cells for bioactivity assessment. The THP-1 dual reporter cell line (InVivoGen) secretes a reporter protein (Lucia luciferase or LUC) in response to activation by the pro-inflammatory bacterial component lipopolysaccharide (LPS). THP-1 dual reporter cells were grown in RPMI 1640 culture medium with 2 mM L-glutamine, 25 mM HEPES, 10% heat-inactivated fetal bovine serum, 100 µg/ml Normocin antibiotic (InvivoGen), Pen-Strep antibiotic (100 U/ml-100 […], InvivoGen). On the day of the assay, cells were seeded in a 96 flat-bottom well plate at 50,000 cells/well and incubated for 2 hours. Cells were then incubated with 1 μM or 10 μM of the compounds described herein or with 1 μM of KK-16 (Selleck), a potent inhibitor of IκB kinases (IKKs) or with DMSO (vehicle control) for 2 hours, followed by the addition of LPS at 25 ng/mL and incubation for 24 hours. After incubation was concluded, the cultures supernatants were collected and IRF related activity was assessed by measurement of the Lucia luciferase, using Quanti-Luc assay (InvivoGen) and these values were adjusted by the Cell Viability levels that was assessed using the Cell-Titer-Glo2 Reagent (Promega).

The test system of assay [4] is LPS-stimulated monocyte-derived dendritic cells. The experiment in a line: MoDC assay, LPS-stimulated pro-inflammatory cytokines. It is filed as cell-based, human. Particulars: for inhibition of pro-inflammatory cytokines (overall): healthy human donor 14 (FIGS. 9A-9H).
Assay [5] has as its system Zymosan-induced production of IL-12p40 in monocyte-derived dendritic cells. Kind of assay: Monocyte derived DC (MoDC) assay, Zymosan-induced IL-12p40 (Luminex/ELISA). It is filed as cell-based, human. The conditions noted are these: MoDC assay.
Source text: as §1
On the technique in general: An ELISA detects its analyte on a solid surface through an enzyme-linked reagent.

`CN1[C@@H](C(=O)O)CS[C@H]1[C@H]1CSC(c2ccccc2)=N1` (single isomer, unassigned) [Compound F-2] gave an Activity in assay [1] below 30 µM.

Consider `CN1C([C@@H]2CSC(c3ccccc3O)=N2)SC[C@@H]1C(=O)O` (stereo partly drawn) [Compound A6, (4S)-2-((S)-2-(2-hydroxyphenyl)-4,5-dihydrothiazol-4-yl)-3-methylthiazolidine-4-carboxylic acid], for which, in assay [2], the Gro-α entry is recorded as “statistically significant decrease”, the IL-6 entry is “statistically significant decrease”, the IL-12p70 entry is recorded as “statistically significant decrease” and the IL-23 entry is recorded as “statistically significant decrease”. Moreover, in assay [2], the IP-10 result is recorded as “statistically significant decrease”, the MCP-1 result is “statistically significant decrease”, the Mip-1α entry is “statistically significant decrease” and the TNFα entry was “statistically significant decrease”. Further, in assay [2], the “inhibition of pro-inflammatory cytokines (overall)” value (“inhibition … (overall)” for short) is recorded as “inhibit several pro-inflammatory cytokines; also recorded: inhibition of pro-inflammatory cytokines”. In addition, the “inhibition of BGP-induced Dectin-1b reporter gene activity / signaling” value in assay [1] (HEK-Dectin-1b cells, range from 1 μM to 30 μM) was “dose-dependent inhibition”. Also, the “concentration of maximal inhibition of BGP-induced Dectin-1b activity” value in assay [1] (range 1 μM to 30 μM, the maximum concentration tested) was 30 µM. The “inhibition of LPS-induced IRF reporter activity” value in assay [3] is on record as “shows inhibition of LPS-induced IRF reporter activity”. The “statistical significance of inhibition of LPS-induced IRF reporter activity” value in assay [3] (tested at 1 μM (FIG. 8B)) is on record as “meets statistical significance”. Moreover, in assay [4] (healthy human donor 14), the Gro-α result is reported as “statistically significant decrease”, the IL-6 result is “statistically significant decrease”, the IL-12p70 result is “statistically significant decrease” and the IL-23 result is “statistically significant decrease”. For the same compound, in assay [4] (healthy human donor 14), the IP-10 result is given as “statistically significant decrease”, the MCP-1 entry was “statistically significant decrease”, the Mip-1α result is “statistically significant decrease” and the TNFα entry is “statistically significant decrease”. The “inhibition … (overall)” value in assay [4] is “inhibit several pro-inflammatory cytokines; also recorded: inhibition of pro-inflammatory cytokines”.

Turning to `CN1C(C2CSC(c3ccccc3O)=N2)SC[C@@H]1C(=O)O` (stereo partly drawn) [Compound A-1, (4S)-2-(2-(2-hydroxyphenyl)-4,5-dihydrothiazol-4-yl)-3-methylthiazolidine-4-carboxylic acid], in assay [1], the Activity is below 30 µM.

Consider `CN1C(C2CSC(c3ccccc3O)=N2)SC[C@]1(C)C(=O)O` (stereo partly drawn) [Compound B-1, (4S)-2-(2-(2-hydroxyphenyl)-4,5-dihydrothiazol-4-yl)-3,4-dimethylthiazolidine-4-carboxylic acid], for which the Activity in assay [5] and in assay [1] was below 30 µM in each case.

`C#CCCC1(CCNC(=O)[C@H]2CSC(C3CSC(c4ccccc4O)=N3)N2C)N=N1` (some centres unmarked) [Compound C-1] displayed an Activity in assay [1] below 30 µM.

Take `C#CCCC1(CCNC(=O)[C@H]2CS[C@H]([C@@H]3CSC(c4ccccc4O)=N3)N2C)N=N1` [Compound C-2, (4S)—N-[2-(3-but-3-ynyldiazirin-3-yl)ethyl]-2-[(4S)-2-(2-hydroxyphenyl)-4,5-dihydrothiazol-4-yl]-3-methyl-thiazolidine-4-carboxamide]: the Activity in assay [1] is below 30 µM.

Consider `C#CCCC1(CCNC(=O)[C@H]2CS[C@@H]([C@@H]3CSC(c4ccccc4O)=N3)N2C)N=N1` [Compound C-3, (2S,4S)—N-(2-(3-(but-3-yn-1-yl)-3H-diazirin-3-yl)ethyl)-2-((S)-2-(2-hydroxyphenyl)-4,5-dihydrothiazol-4-yl)-3-methylthiazolidine-4-carboxamide], for which the Activity in assay [1] is below 30 µM.

`C#CCCC1(CCOC(=O)[C@H]2CSC(C3CSC(c4ccccc4O)=N3)N2C)N=N1` (stereo partly drawn) [Compound D-1]: in assay [1], the Activity is below 30 µM.

With `C[C@]1(C(=O)O)CSC(C2CSC(c3ccccc3O)=N2)N1` (stereo partly drawn) [Compound E-1, (4S)-2-(2-(2-hydroxyphenyl)-4,5-dihydrothiazol-4-yl)-4-methyl-thiazolidine-4-carboxylic acid], in assay [1], the Activity was below 30 µM.

With `CN1C([C@H]2CSC(c3ccccc3O)=N2)SC[C@H]1C(=O)O` (stereo partly drawn) [Compound I-100, (4R)-2-((R)-2-(2-hydroxyphenyl)-4,5-dihydrothiazol-4-yl)-3-methylthiazolidine-4-carboxylic acid], in assay [2], the Gro-α result is listed as “statistically significant decrease”, the IL-6 result was “statistically significant decrease”, the IL-12p70 result is on record as “statistically significant decrease” and the IL-23 entry was “statistically significant decrease”. In assay [2], the IP-10 result is “statistically significant decrease”, the MCP-1 result is “statistically significant decrease”, the Mip-1α entry is listed as “statistically significant decrease” and the TNFα result is “statistically significant decrease”. Also, in assay [2], the “inhibition … (overall)” value is given as “inhibit several pro-inflammatory cytokines; also recorded: inhibition of pro-inflammatory cytokines”. For the same compound, the “inhibition of LPS-induced IRF reporter activity” value in assay [3] is “shows inhibition of LPS-induced IRF reporter activity”. Further, the “statistical significance of inhibition of LPS-induced IRF reporter activity” value in assay [3] (tested at 1 and 10 μM (FIG. 8A)) is “does not meet statistical significance”. Moreover, in assay [4] (healthy human donor 14), the Gro-α entry is given as “statistically significant decrease”, the IL-6 entry is “statistically significant decrease”, the IL-12p70 result was “statistically significant decrease” and the IL-23 result is on record as “statistically significant decrease”. Further, in assay [4] (healthy human donor 14), the MCP-1 entry is “statistically significant decrease”, the Mip-1α result is listed as “statistically significant decrease” and the TNFα entry was “statistically significant decrease”. Also, in assay [4], the “inhibition … (overall)” value is “inhibit several pro-inflammatory cytokines; also recorded: inhibition of pro-inflammatory cytokines”.
